Test results taken from BindingDB's records for patent US20230312550 (Astrazeneca, 2023).

target: T1, Prolyl endopeptidase FAP (Homo sapiens, UniProt Q12884); assay: hFAP Binding Assay; settings: not given
T1 sequence (Q12884 whole entry): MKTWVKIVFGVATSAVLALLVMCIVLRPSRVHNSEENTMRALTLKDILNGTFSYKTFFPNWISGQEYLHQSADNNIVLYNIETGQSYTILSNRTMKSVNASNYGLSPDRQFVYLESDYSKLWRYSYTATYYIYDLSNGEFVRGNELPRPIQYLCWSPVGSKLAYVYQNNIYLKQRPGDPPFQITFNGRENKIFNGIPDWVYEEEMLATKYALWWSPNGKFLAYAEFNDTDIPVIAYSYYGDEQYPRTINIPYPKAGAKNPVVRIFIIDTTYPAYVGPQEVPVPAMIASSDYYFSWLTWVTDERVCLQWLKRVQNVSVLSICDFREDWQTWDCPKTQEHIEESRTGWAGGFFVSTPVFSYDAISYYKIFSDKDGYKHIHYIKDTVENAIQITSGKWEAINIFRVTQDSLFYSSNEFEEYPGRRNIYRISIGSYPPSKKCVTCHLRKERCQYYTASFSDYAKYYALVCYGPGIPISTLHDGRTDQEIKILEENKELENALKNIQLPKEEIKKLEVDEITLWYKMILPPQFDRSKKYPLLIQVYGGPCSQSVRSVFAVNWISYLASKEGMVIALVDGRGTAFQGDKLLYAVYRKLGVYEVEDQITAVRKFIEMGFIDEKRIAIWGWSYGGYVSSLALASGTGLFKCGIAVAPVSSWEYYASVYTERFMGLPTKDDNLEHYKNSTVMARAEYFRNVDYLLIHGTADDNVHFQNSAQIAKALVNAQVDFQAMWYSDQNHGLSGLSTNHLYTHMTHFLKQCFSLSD

koff [s⁻¹] | SMILES
5.8e-05 | Cc1ccc(-c2ccc3nccc(C(=O)NCC(=O)N4CSC[C@H]4C#N)c3c2)cn1 [US20230312550, Example 177]
0.00017 | COc1ccc(-c2ccc3nccc(C(=O)NCC(=O)N4CSC[C@H]4C#N)c3c2)cn1 [US20230312550, Example 178]
0.00016 | N#C[C@@H]1CSCN1C(=O)CNC(=O)c1ccnc2cc(Cl)c(N3CCOCC3)cc12 [US20230312550, Example 179]
0.00095 | N#C[C@@H]1CSCN1C(=O)CNC(=O)c1ccnc2c(Cl)cc(N3CCOCC3)cc12 [US20230312550, Example 180]
4.2e-05 | N#C[C@@H]1CSCN1C(=O)CNC(=O)c1ccnc2ccc(N3CC(F)(c4ccccc4)C3)cc12 [US20230312550, Example 182]
1.4e-05 | CC(=O)N1CC2(C1)CN(c1ccc3nccc(C(=O)NCC(=O)N4CSC[C@H]4C#N)c3c1)C2 [US20230312550, Example 184]
0.00022 | N#C[C@@H]1CSCN1C(=O)CNC(=O)c1ccnc2ccc(N3CC(Cc4ccc(Cl)cc4)C3)cc12 [US20230312550, Example 187]
2.2e-05 | CC1(CS(C)(=O)=O)CN(c2ccc3nccc(C(=O)NCC(=O)N4CSC[C@H]4C#N)c3c2)C1 [US20230312550, Example 188]
5.1e-05 | CCC1(O)CCN(c2ccc3nccc(C(=O)NCC(=O)N4CSC[C@H]4C#N)c3c2)CC1 [US20230312550, Example 189]
3.6e-05 | CC1(O)CCN(c2ccc3nccc(C(=O)NCC(=O)N4CSC[C@H]4C#N)c3c2)CC1 [US20230312550, Example 190]
3.3e-05 | CCC1(OC)CCN(c2ccc3nccc(C(=O)NCC(=O)N4CSC[C@H]4C#N)c3c2)CC1 [US20230312550, Example 191]
1.4e-05 | CC(C)C1(O)CCN(c2ccc3nccc(C(=O)NCC(=O)N4CSC[C@H]4C#N)c3c2)CC1 [US20230312550, Example 192]
0.00012 | C[C@@H]1CN(c2ccc3nccc(C(=O)NCC(=O)N4CSC[C@H]4C#N)c3c2)C[C@H](C)[C@]1(C)O [US20230312550, Example 193]
6.8e-05 | N#C[C@@H]1CSCN1C(=O)CNC(=O)c1ccnc2ccc(N3C[C@H]4CCC[C@@H](C3)O4)cc12 [US20230312550, Example 194]
6.1e-05 | CN1CCC(F)(c2ccc3nccc(C(=O)NCC(=O)N4CSC[C@H]4C#N)c3c2)CC1 [US20230312550, Example 195]
6.6e-05 | CC(C)n1nccc1-c1ccc2nccc(C(=O)NCC(=O)N3CSC[C@H]3C#N)c2c1 [US20230312550, Example 197]
0.00011 | C[C@]1(F)CCN(c2ccc3nccc(C(=O)NCC(=O)N4CSC[C@H]4C#N)c3c2)C1 [US20230312550, Example 198]
0.00026 | N#C[C@@H]1CSCN1C(=O)CNC(=O)c1ccnc2ccc(N3CCC[C@@H]3C3CC3)cc12 [US20230312550, Example 199]
0.00023 | N#C[C@@H]1CSCN1C(=O)CNC(=O)c1ccnc2ccc(N3CCC[C@H]3C3CC3)cc12 [US20230312550, Example 200]
7e-05 | C[C@@H]1CCN(c2ccc3nccc(C(=O)NCC(=O)N4CSC[C@H]4C#N)c3c2)C1=O [US20230312550, Example 202]
6.3e-05 | C[C@H]1CCCN(c2ccc3nccc(C(=O)NCC(=O)N4CSC[C@H]4C#N)c3c2)C1=O [US20230312550, Example 203]
5.8e-05 | C[C@@H]1CCCN(c2ccc3nccc(C(=O)NCC(=O)N4CSC[C@H]4C#N)c3c2)C1=O [US20230312550, Example 204]
5.3e-05 | CO[C@H]1CCN(c2ccc3nccc(C(=O)NCC(=O)N4CSC[C@H]4C#N)c3c2)C1 [US20230312550, Example 207]
0.00026 | N#C[C@@H]1CSCN1C(=O)CNC(=O)c1ccnc2ccc(N3C[C@@H]4[C@H](C3)[C@H]4C(F)(F)F)cc12 [US20230312550, Example 208]

SMILES | koff [s⁻¹]
N#C[C@@H]1CSCN1C(=O)CNC(=O)c1ccnc2ccc(N3C4CCC3CC4)cc12 [US20230312550, Example 209] | 4.2e-05

same assay, conditions: read-out: kon (M-1-s-1)

kon [M⁻¹ s⁻¹] | SMILES
100000 | Cc1ccc(-c2ccc3nccc(C(=O)NCC(=O)N4CSC[C@H]4C#N)c3c2)cn1 [US20230312550, Example 177]
3.1e+06 | COc1ccc(-c2ccc3nccc(C(=O)NCC(=O)N4CSC[C@H]4C#N)c3c2)cn1 [US20230312550, Example 178]
3.2e+06 | N#C[C@@H]1CSCN1C(=O)CNC(=O)c1ccnc2cc(Cl)c(N3CCOCC3)cc12 [US20230312550, Example 179]
560000 | N#C[C@@H]1CSCN1C(=O)CNC(=O)c1ccnc2c(Cl)cc(N3CCOCC3)cc12 [US20230312550, Example 180]
250000 | N#C[C@@H]1CSCN1C(=O)CNC(=O)c1ccnc2ccc(N3CC(F)(c4ccccc4)C3)cc12 [US20230312550, Example 182]
950000 | CC(=O)N1CC2(C1)CN(c1ccc3nccc(C(=O)NCC(=O)N4CSC[C@H]4C#N)c3c1)C2 [US20230312550, Example 184]
3.1e+06 | N#C[C@@H]1CSCN1C(=O)CNC(=O)c1ccnc2ccc(N3CC(Cc4ccc(Cl)cc4)C3)cc12 [US20230312550, Example 187]
2.6e+06 | CC1(CS(C)(=O)=O)CN(c2ccc3nccc(C(=O)NCC(=O)N4CSC[C@H]4C#N)c3c2)C1 [US20230312550, Example 188]
2.6e+06 | CCC1(O)CCN(c2ccc3nccc(C(=O)NCC(=O)N4CSC[C@H]4C#N)c3c2)CC1 [US20230312550, Example 189]
1.8e+06 | CC1(O)CCN(c2ccc3nccc(C(=O)NCC(=O)N4CSC[C@H]4C#N)c3c2)CC1 [US20230312550, Example 190]
1.5e+06 | CCC1(OC)CCN(c2ccc3nccc(C(=O)NCC(=O)N4CSC[C@H]4C#N)c3c2)CC1 [US20230312550, Example 191]
1.3e+06 | CC(C)C1(O)CCN(c2ccc3nccc(C(=O)NCC(=O)N4CSC[C@H]4C#N)c3c2)CC1 [US20230312550, Example 192]
740000 | C[C@@H]1CN(c2ccc3nccc(C(=O)NCC(=O)N4CSC[C@H]4C#N)c3c2)C[C@H](C)[C@]1(C)O [US20230312550, Example 193]
1.1e+06 | N#C[C@@H]1CSCN1C(=O)CNC(=O)c1ccnc2ccc(N3C[C@H]4CCC[C@@H](C3)O4)cc12 [US20230312550, Example 194]
190000 | CN1CCC(F)(c2ccc3nccc(C(=O)NCC(=O)N4CSC[C@H]4C#N)c3c2)CC1 [US20230312550, Example 195]
88000 | CC(C)n1nccc1-c1ccc2nccc(C(=O)NCC(=O)N3CSC[C@H]3C#N)c2c1 [US20230312550, Example 197]
2.9e+06 | C[C@]1(F)CCN(c2ccc3nccc(C(=O)NCC(=O)N4CSC[C@H]4C#N)c3c2)C1 [US20230312550, Example 198]
2.3e+06 | N#C[C@@H]1CSCN1C(=O)CNC(=O)c1ccnc2ccc(N3CCC[C@@H]3C3CC3)cc12 [US20230312550, Example 199]
2.5e+06 | N#C[C@@H]1CSCN1C(=O)CNC(=O)c1ccnc2ccc(N3CCC[C@H]3C3CC3)cc12 [US20230312550, Example 200]
1.6e+06 | C[C@@H]1CCN(c2ccc3nccc(C(=O)NCC(=O)N4CSC[C@H]4C#N)c3c2)C1=O [US20230312550, Example 202]
440000 | C[C@H]1CCCN(c2ccc3nccc(C(=O)NCC(=O)N4CSC[C@H]4C#N)c3c2)C1=O [US20230312550, Example 203]
850000 | C[C@@H]1CCCN(c2ccc3nccc(C(=O)NCC(=O)N4CSC[C@H]4C#N)c3c2)C1=O [US20230312550, Example 204]
4.6e+06 | CO[C@H]1CCN(c2ccc3nccc(C(=O)NCC(=O)N4CSC[C@H]4C#N)c3c2)C1 [US20230312550, Example 207]
5.6e+06 | N#C[C@@H]1CSCN1C(=O)CNC(=O)c1ccnc2ccc(N3C[C@@H]4[C@H](C3)[C@H]4C(F)(F)F)cc12 [US20230312550, Example 208]

SMILES | kon [M⁻¹ s⁻¹]
N#C[C@@H]1CSCN1C(=O)CNC(=O)c1ccnc2ccc(N3C4CCC3CC4)cc12 [US20230312550, Example 209] | 3.2e+06
